Reference: PubChem BioAssay (NCI)
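These data come from cells grown in 96-well plates and exposed to compound for 48 hours at five concentrations. GI50 marks 50% less growth. Definition used: TGI = concentration required for complete inhibition of growth.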

Experiments:
Test in all cases: inhibition of tumour cell growth, NCI panel, 48 h; in the data active = GI50 below about 0.43 µM; inactive = the rest
[1] = system: 786-0 renal
[2] = system: A498 renal
[3] = system: A549 NSCLC
[4] = system: ACHN renal
[5] = system: BT-549 breast
[6] = system: CAKI-1 renal
[7] = system: COLO 205 colon
[8] = system: DU-145 prostate
[9] = system: EKVX NSCLC
[10] = system: HCC-2998 colon
[11] = system: HCT-116 colon
[12] = system: HCT-15 colon
[13] = system: HL-60(TB) leukemia
[14] = system: HOP-62 NSCLC
[15] = system: HOP-92 NSCLC
[16] = system: HS 578T breast
[17] = system: HT29 colon
[18] = system: IGROV1 ovarian
[19] = system: KM12 colon
[20] = system: LOX IMVI melanoma
[21] = system: M14 melanoma
[22] = system: MALME-3M melanoma
[23] = system: MCF7 breast
[24] = system: MDA-MB-231 breast
[25] = system: MDA-MB-435
[26] = system: MOLT-4 leukemia
[27] = system: NCI-H226 lung
[28] = system: NCI-H522 lung
[29] = system: NCI/ADR-RES ovarian
[30] = system: OVCAR-3 ovarian
[31] = system: OVCAR-4 ovarian
[32] = system: OVCAR-5 ovarian
[33] = system: OVCAR-8 ovarian
[34] = system: PC-3 prostate
[35] = system: RPMI-8226 leukemia
[36] = system: RXF 393 renal
[37] = system: SF-268 CNS
[38] = system: SF-295 CNS
[39] = system: SF-539 CNS
[40] = system: SK-MEL-2 melanoma
[41] = system: SK-MEL-28 melanoma
[42] = system: SK-MEL-5 melanoma
[43] = system: SK-OV-3 ovarian
[44] = system: SN12C renal
[45] = system: SNB-19 CNS
[46] = system: SNB-75 CNS
[47] = system: SR leukemia
[48] = system: SW-620 colon
[49] = system: T-47D breast
[50] = system: TK-10 renal
[51] = system: U251 CNS
[52] = system: UACC-257 melanoma
[53] = system: UACC-62 melanoma
[54] = system: UO-31 renal

COc1ccc2c(c1)CC[C@@H]1[C@@H]2CC[C@]2(C)c3[nH]ncc3C[C@@H]12
35.3 µM: TGI [10]
15.3 µM: TGI [47]
> 50 µM: TGI [1] | TGI [2] | TGI [3] | TGI [4] | TGI [5] | TGI [7] | TGI [8] | TGI [9] | TGI [12] | TGI [14] | TGI [15] | TGI [16] | TGI [17] | TGI [18] | TGI [21] | TGI [24] | TGI [27] | TGI [29] | TGI [31] | TGI [32] | TGI [33] | TGI [34] | TGI [37] | TGI [40] | TGI [41] | TGI [43] | TGI [44] | TGI [45] | TGI [46] | TGI [48] | TGI [50] | TGI [51] | TGI [53] | TGI [54]
27.5 µM: TGI [38]
16.4 µM: TGI [42]
42 µM: TGI [39]
48.8 µM: TGI [6]
29.4 µM: TGI [52]
33 µM: TGI [49]
21.6 µM: TGI [19]
40.6 µM: TGI [26]
18.6 µM: TGI [30]
33.3 µM: TGI [20]
28 µM: TGI [36]
inactive: GI50 [1] 18.2 µM | GI50 [2] 25.9 µM | GI50 [3] 15.2 µM | GI50 [4] 19 µM | GI50 [5] 26 µM | GI50 [6] 16.2 µM | GI50 [7] 14.5 µM | GI50 [8] 20.6 µM | GI50 [9] 16.3 µM | GI50 [10] 13.7 µM | GI50 [11] 12.3 µM | GI50 [12] 16.8 µM | GI50 [13] 1640 nM | GI50 [14] 24.7 µM | GI50 [15] 14.4 µM | GI50 [16] 17.5 µM | GI50 [17] 15 µM | GI50 [18] 21.9 µM | GI50 [19] 10.1 µM | GI50 [20] 10.8 µM | GI50 [21] 16.4 µM | GI50 [22] 11.7 µM | GI50 [23] 13.4 µM | GI50 [24] 11.5 µM | GI50 [25] 14.7 µM | GI50 [26] 1800 nM | GI50 [27] 16.6 µM | GI50 [28] 10.3 µM | GI50 [29] 15.8 µM | GI50 [30] 8.9 µM | GI50 [31] 15.4 µM | GI50 [32] 20.2 µM | GI50 [33] 15.6 µM | GI50 [34] 18.2 µM | GI50 [35] 10.2 µM | GI50 [36] 11.3 µM | GI50 [37] 19.6 µM | GI50 [38] 12.6 µM | GI50 [39] 14.8 µM | GI50 [40] 17 µM | GI50 [41] 32.1 µM | GI50 [42] 8.16 µM | GI50 [43] 35.7 µM | GI50 [44] 18 µM | GI50 [45] 21.4 µM | GI50 [46] 21.9 µM | GI50 [47] 2140 nM | GI50 [48] 16.1 µM | GI50 [49] 10.9 µM | GI50 [50] 27 µM | GI50 [51] 18.2 µM | GI50 [52] 11.3 µM | GI50 [53] 17.2 µM | GI50 [54] 19.6 µM
27.4 µM: TGI [28]
27 µM: TGI [22]
32.8 µM: TGI [35]
35.7 µM: TGI [23]
31.9 µM: TGI [11]
44.5 µM: TGI [25]
9.84 µM: TGI [13]
